{
  "source": "patent US8993282B2",
  "about": "“Carotenoid fermentation method” (JX Nippon Oil & Energy Corporation, priority 2008, dated 2015)",
  "key": {"[1]": {"system": "mutant Paracoccus sp. strain Y-1071", "assay": "Glutamate vs yeast extract supplementation, test tube culture (defined medium), carotenoid by HPLC", "type": "cell-based", "method": "(§1) In the examples, carotenoids were quantified by high performance liquid chromatography (HPLC) as follows.\n(§2) Two columns of Wakosil-II 5 SIL-100 (φ4.6×250 mm) (Wako Pure Chemical Industries, Ltd., Japan) were connected to each other for use as a column. Elution was performed by flowing an n-hexane-tetrahydrofuran-methanol mixed solution (40:20:1), which was a mobile phase, at a flow rate of 1.0 mL/minute at a constant temperature around room temperature. The measurement was performed as follows. Samples were each dissolved in tetrahydrofuran and then diluted 100-fold with the mobile phase. Each dilution was injected in a volume of 20 μL. The column eluate was detected at a wavelength of 470 nm. As a reference for quantification, astaxanthin (SIGMA, Cat. No. A9335) was used. The astaxanthin concentration of the reference solution was determined using the following equation after measuring the absorbance (A) of the reference solution at 477 nm and the area percentage % (B) of the astaxanthin peak at the time of HPLC analysis under the above conditions. Astaxanthin concentration (mg/L)=A/2150×B×100\nA medium of the following composition (glucose 20 g/L, dry yeast 5 g/L, potassium dihydrogenphosphate 1.5 g/L, disodium hydrogenphosphate 12-hydrate 3.8 g/L, calcium chloride dihydrate 0.1 g/L, magnesium sulfate 7-hydrate 0.7 g/L, iron sulfate 7-hydrate 3 g/L, pH 7.2) was dispensed in 8 ml volumes into cotton-plugged test tubes having an inner diameter of 18 mm and sterilized in an autoclave at 121° C. for 15 minutes to prepare a test tube medium for seed culture.\nNext, a medium of the following composition (glucose 40 g/L, ammonium sulfate 1.5 g/L, potassium dihydrogenphosphate 0.54 g/L, dipotassium hydrogenphosphate 2,78 g/L, calcium chloride dihydrate 1 g/L, sodium chloride 3 g/L, magnesium sulfate 7-hydrate 0.7 g/L, iron sulfate 7-hydrate 5 g/L, zinc sulfate 7-hydrate 2 mg/L, cobalt chloride 6-hydrate 2 mg/L, copper sulfate 5-hydrate 1 mg/L, manganese sulfate 5-hydrate 4 mg/L, sodium molybdate dihydrate 2 mg/L, nickel sulfate 6-hydrate 1 mg/L, sodium selenate 0.5 mg/L, boric acid 5 mg/L, potassium iodide 1 mg/L, cyanocobalamin 1 mg/L, riboflavin 10 mg/L, calcium pantothenate 15 mg/L, pyridoxine hydrochloride salt 20 mg/L, thiamine hydrochloride salt […], ascorbic acid 30 mg/L, folic acid 1 mg/L, niacin 15 mg/L, p-aminobenzoic acid 10 mg/L, biotin 0.1 mg/L, myo-inositol 50 mg/L, choline 10 mg/L, polyether-based defoaming agent 0.2 g/L) was dispensed in 8 ml volumes into cotton-plugged test tubes having an inner diameter of 18 mm (4 tubes in total).\nFor use in this medium, glucose, inorganic salts, trace metals and vitamins were prepared separately. Glucose, inorganic salts and trace metals were sterilized by heating at 121° C. for 15 minutes, while vitamins were sterilized by filtration. Then, these 4 solutions were mixed together.\nFurther, one of the test tubes was supplemented with a heat-sterilized aqueous solution of monosodium L-glutamate monohydrate to 6 g/L (32 mmol/L), another tube was supplemented with a heat-sterilized aqueous yeast extract to 6 g/L, another tube was supplemented with the same yeast extract to 12 g/L, and the other tube was supplemented with nothing. Finally, the mediums in the tubes were aseptically supplemented with 12% aqueous ammonia to give pH 7.2.\nThe mutant Paracoccus sp. strain Y-1071 selected in Example 3 was inoculated into the test tube medium for seed culture and then cultured with shaking at 30° C. for 2 days at 300 spm. The resulting culture solution was then inoculated in 0.1 ml volumes into the 4 test tube media and cultured with shaking at 3(1° C. for 3 days at 300 spm.\nEach culture solution was measured for its carotenoid concentration by HPLC."}, "[2]": {"system": "mutant Paracoccus sp. strain Y-1071", "assay": "Glutamate supplementation, 5 L fermentation tank culture, carotenoid by HPLC", "type": "cell-based", "method": "as §1, §2\nA medium of the following composition (sucrose 20 g/L, filtered corn steep liquor 5 g/L, potassium dihydrogenphosphate 0.54 g/L, dipotassium hydrogenphosphate 12-hydrate 2.78 g/L, calcium chloride dihydrate 5.0 g/L, magnesium sulfate 7-hydrate 0.7 g/L, iron sulfate 7-hydrate 3.0 g/L, fatty acid-based defoaming agent 0.2 g/L, […]) was dispensed in 100 ml volumes into 500 mL cotton-plugged Erlenmeyer flasks and sterilized in an autoclave at 121° C. for 15 minutes to prepare a flask medium for seed culture in 2 flasks,\nNext, a medium of the following composition (sucrose 40 g/L, corn steep liquor 30 g/L, ammonium sulfate 0.5 g/L, potassium dihydrogenphosphate 2.25 g/L, disodium hydrogenphosphate 12-hydrate 5.7 g/L, calcium chloride dihydrate 0.1 g/L, magnesium sulfate 7-hydrate 0.5 g/L, iron sulfate 7-hydrate 5 g/L, fatty acid-based defoaming agent 0.5 g/L) was dispensed in 2.0 L volumes into 5 L fermentation tanks (2 tanks in total). One of the fermentation tanks was supplemented with monosodium L-glutamate monohydrate to 50 mmol/L, while the other was supplemented with nothing as a control. These fermentation tanks were sterilized in an autoclave at 121° C. for 30 minutes,\nA loopful of the mutant Paracoccus sp, strain Y-1071 selected in Example 3 was inoculated into the flask medium for seed culture and then cultured with rotary shaking at 28° C. for 2 days at 150 rpm. The resulting culture solution was then inoculated in 80 mL volumes into the individual fermentation tanks, followed by aerobic culture at 28° C. at an aeration volume of 1 vvm for 120 hours. […] during culture, the pH was continuously controlled with 15% aqueous ammonia. Glucose was added in an amount of 30 g on day 1, day 2 and day 3 of culture to prevent glucose depletion. The minimum number of agitation rotations was set to 100 rpm, and the number of agitation rotations was varied such that the dissolved oxygen concentration in the culture solution was maintained at 2 to 3 ppm. Bubbling was detected with a bubble sensor and suppressed by automatic addition of a fatty acid-based defoaming agent.\nAt the completion of culture, each culture solution was measured for its carotenoid concentration by HPLC."}, "[3]": {"conditions": "Glutamic acid concentration 50 mmol/L, 120 hours"}},
  "data": [
    {"smiles": "N[C@@H](CCC(=O)O)C(=O)O", "note": "[Glutamic acid, glutamic acid]", "values": [
      {"measurement": "produced carotenoid concentration compared to the sample without glutamic acid", "setting": "[1]; glutamic acid 6 g/L (32 mmol/L), yeast extract 6 g/L and 12 g/L", "result": "higher produced carotenoid concentration"},
      {"measurement": "Produced carotenoid concentration, 3-Hydroxyechinenone", "setting": "[1]; supplement 6 g/L, 3 days", "result": 0.2, "unit": "mg/L"},
      {"measurement": "Produced carotenoid concentration, Adonixanthin", "setting": "[1]; supplement 6 g/L, 3 days", "result": 3.3, "unit": "mg/L"},
      {"measurement": "Produced carotenoid concentration, Astaxanthin", "setting": "[1]; supplement 6 g/L, 3 days", "result": 13.7, "unit": "mg/L"},
      {"measurement": "Produced carotenoid concentration, Asteroidenone", "setting": "[1]; supplement 6 g/L, 3 days", "result": 0.2, "unit": "mg/L"},
      {"measurement": "Produced carotenoid concentration, Canthaxanthin", "setting": "[1]; supplement 6 g/L, 3 days", "result": 1.8, "unit": "mg/L"},
      {"measurement": "Produced carotenoid concentration, Echinenone", "setting": "[1]; supplement 6 g/L, 3 days", "result": 0.9, "unit": "mg/L"},
      {"measurement": "Produced carotenoid concentration, Phoenicoxanthin", "setting": "[1]; supplement 6 g/L, 3 days", "result": 4.1, "unit": "mg/L"},
      {"measurement": "Produced carotenoid concentration, Total Carotenoid", "setting": "[1]; supplement 6 g/L, 3 days", "result": 26.3, "unit": "mg/L"},
      {"measurement": "Produced carotenoid concentration, Zeaxanthin", "setting": "[1]; supplement 6 g/L, 3 days", "result": 0.06, "unit": "mg/L"},
      {"measurement": "Produced carotenoid concentration, β-Carotene", "setting": "[1]; supplement 6 g/L, 3 days", "result": 2.0, "unit": "mg/L"},
      {"measurement": "Produced carotenoid concentration, β-Cryptoxanthin", "setting": "[1]; supplement 6 g/L, 3 days", "result": 0.02, "unit": "mg/L"},
      {"measurement": "produced carotenoid concentration compared to the sample without glutamic acid", "setting": "[2]; 50 mmol/L", "result": "higher produced carotenoid concentration"},
      {"measurement": "3-Hydroxyechinenone", "setting": "[2]; [3]", "result": 10, "unit": "mg/L"},
      {"measurement": "Adonixanthin", "setting": "[2]; [3]", "result": 158, "unit": "mg/L"},
      {"measurement": "Astaxanthin", "setting": "[2]; [3]", "result": 805, "unit": "mg/L"},
      {"measurement": "Asteroidenone", "setting": "[2]; [3]", "result": 9, "unit": "mg/L"},
      {"measurement": "Canthaxanthin", "setting": "[2]; [3]", "result": 101, "unit": "mg/L"},
      {"measurement": "Echinenone", "setting": "[2]; [3]", "result": 62, "unit": "mg/L"},
      {"measurement": "Phoenicoxanthin", "setting": "[2]; [3]", "result": 217, "unit": "mg/L"},
      {"measurement": "Total carotenoid", "setting": "[2]; [3]", "result": 1458, "unit": "mg/L"},
      {"measurement": "Zeaxanthin", "setting": "[2]; [3]", "result": 3, "unit": "mg/L"},
      {"measurement": "β-Carotene", "setting": "[2]; [3]", "result": 93, "unit": "mg/L"},
      {"measurement": "β-Cryptoxanthin", "setting": "[2]; [3]", "result": 0.5, "unit": "mg/L"}
    ]}
  ]
}
